PubChem BioAssay (NCI)
“And” between values parts separate entries of the source, which are not always exact repeats. Equal entries are not always repeated.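 Method: 48-hour compound exposure of cells in 96-well plates, five concentrations, linear interpolation of endpoints. GI50 marks 50% less growth. TGI marks complete inhibition of growth.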

Assays:
Assay in all cases: NCI anticancer screen, dose series, 48 h
786-0 renal = test system: 786-0 renal
OVCAR-8 ovarian = test system: OVCAR-8 ovarian
SK-MEL-2 melanoma = test system: SK-MEL-2 melanoma
M14 melanoma = test system: M14 melanoma
TK-10 renal = test system: TK-10 renal
HT29 colon = test system: HT29 colon
SF-268 CNS = test system: SF-268 CNS
OVCAR-4 ovarian = test system: OVCAR-4 ovarian
IGROV1 ovarian = test system: IGROV1 ovarian
SF-539 CNS = test system: SF-539 CNS
K-562 leukemia = test system: K-562 leukemia
SN12C renal = test system: SN12C renal

Clc1ccc(C(OCn2ccnc2)c2nc3ccccc3[nH]2)c(Cl)c1 (stereo unspecified)
TGI (786-0 renal): > 100 µM | TGI (OVCAR-8 ovarian): > 100 µM | TGI (SK-MEL-2 melanoma): > 100 µM | TGI (M14 melanoma): > 100 µM | TGI (TK-10 renal): > 100 µM | TGI (HT29 colon): > 100 µM | TGI (SF-268 CNS): > 100 µM | TGI (OVCAR-4 ovarian): > 100 µM | TGI (IGROV1 ovarian): > 100 µM | TGI (SF-539 CNS): > 100 µM | TGI (K-562 leukemia): > 100 µM | TGI (SN12C renal): > 100 µM

CC1=C(C(=O)NNC(=O)C[N+](C)(C)C)CC(C(=O)NNC(=O)C[N+](C)(C)C)=C(C)N1
TGI (786-0 renal): > 100 µM | TGI (OVCAR-8 ovarian): > 100 µM | TGI (SK-MEL-2 melanoma): > 100 µM | TGI (M14 melanoma): > 100 µM | TGI (TK-10 renal): > 100 µM | TGI (HT29 colon): > 100 µM | TGI (SF-268 CNS): > 100 µM | TGI (OVCAR-4 ovarian): > 100 µM | TGI (IGROV1 ovarian): > 100 µM | TGI (SF-539 CNS): > 100 µM | TGI (K-562 leukemia): > 100 µM | TGI (SN12C renal): > 100 µM

Nc1nccc(NCC2(CO)CC(CCc3ccccc3)C2)n1 (stereo unspecified)
TGI (786-0 renal): 27.8 µM | TGI (OVCAR-8 ovarian): 69.4 µM | TGI (SK-MEL-2 melanoma): 32.8 µM | TGI (TK-10 renal): 25.5 µM | TGI (HT29 colon): 23.9 µM | TGI (OVCAR-4 ovarian): 47.2 µM | TGI (IGROV1 ovarian): 33.3 µM | TGI (SF-539 CNS): 32.1 µM | TGI (K-562 leukemia): 45.5 µM | TGI (SN12C renal): 60.2 µM

COc1ccc(NC(=S)c2ccc([N+](=O)[O-])o2)cc1
TGI (786-0 renal): 4.99 µM | TGI (OVCAR-8 ovarian): 13.1 µM | TGI (SK-MEL-2 melanoma): 4.15 µM | TGI (M14 melanoma): 7.28 µM | TGI (TK-10 renal): 9.84 µM | TGI (HT29 colon): 3.7 µM | TGI (SF-268 CNS): 9.76 µM | TGI (OVCAR-4 ovarian): 3.07 µM | TGI (IGROV1 ovarian): 8.56 µM | TGI (SF-539 CNS): 0.549 µM | TGI (K-562 leukemia): 7.55 µM | TGI (SN12C renal): 4.85 µM

Cc1cccc(C)c1NC(=O)C(=O)CC(=O)c1sc(Nc2c(C)cccc2C)nc1C
TGI (786-0 renal): > 100 µM | TGI (OVCAR-8 ovarian): > 100 µM | TGI (SK-MEL-2 melanoma): > 100 µM | TGI (M14 melanoma): > 100 µM | TGI (TK-10 renal): > 100 µM | TGI (HT29 colon): > 100 µM | TGI (SF-268 CNS): > 100 µM | TGI (OVCAR-4 ovarian): > 100 µM | TGI (IGROV1 ovarian): > 100 µM | TGI (SF-539 CNS): > 100 µM | TGI (K-562 leukemia): > 100 µM | TGI (SN12C renal): > 100 µM

CN(CC(=O)Nc1ccccc1C(=O)O)c1ccccc1
TGI (786-0 renal): > 100 µM | TGI (OVCAR-8 ovarian): > 100 µM | TGI (M14 melanoma): > 100 µM | TGI (TK-10 renal): > 100 µM | TGI (HT29 colon): > 100 µM | TGI (SF-268 CNS): > 100 µM | TGI (OVCAR-4 ovarian): > 100 µM | TGI (IGROV1 ovarian): > 100 µM | TGI (SF-539 CNS): > 100 µM | TGI (K-562 leukemia): > 100 µM | TGI (SN12C renal): > 100 µM

Cc1cc(C=O)c2c(=O)c3c(O)ccc(/C=C/C(C)C)c3oc2c1
TGI (786-0 renal): > 100 µM | TGI (OVCAR-8 ovarian): > 100 µM | TGI (SK-MEL-2 melanoma): > 100 µM | TGI (M14 melanoma): > 100 µM | TGI (TK-10 renal): > 100 µM | TGI (HT29 colon): > 100 µM | TGI (SF-268 CNS): > 100 µM | TGI (OVCAR-4 ovarian): > 100 µM | TGI (IGROV1 ovarian): > 100 µM | TGI (SF-539 CNS): > 100 µM | TGI (K-562 leukemia): > 100 µM

CN1S(=O)(=O)N(C)P12(N=P(CP(=NP13(N(C)S(=O)(=O)N1C)N(C)S(=O)(=O)N3C)(c1ccccc1)c1ccccc1)(c1ccccc1)c1ccccc1)N(C)S(=O)(=O)N2C
TGI (786-0 renal): > 100 µM | TGI (OVCAR-8 ovarian): > 100 µM | TGI (SK-MEL-2 melanoma): > 100 µM | TGI (M14 melanoma): > 100 µM | TGI (TK-10 renal): > 100 µM | TGI (HT29 colon): > 100 µM | TGI (SF-268 CNS): > 100 µM | TGI (IGROV1 ovarian): > 100 µM | TGI (SF-539 CNS): > 100 µM | TGI (K-562 leukemia): > 100 µM | TGI (SN12C renal): > 100 µM

S=c1[nH]nc(Cn2c3ccc(Br)cc3c3nc4ccccc4nc32)o1
TGI (786-0 renal): > 100 µM | TGI (OVCAR-8 ovarian): > 100 µM | TGI (SK-MEL-2 melanoma): > 88.6 µM | TGI (M14 melanoma): > 100 µM | TGI (TK-10 renal): > 100 µM | TGI (HT29 colon): > 100 µM | TGI (SF-268 CNS): > 100 µM | TGI (IGROV1 ovarian): > 90.2 µM | TGI (SF-539 CNS): > 80.7 µM | TGI (K-562 leukemia): > 100 µM | TGI (SN12C renal): > 100 µM

CCCCCCC1OC23OC1CCC2C(O)CCC3O (stereo unspecified)
TGI (786-0 renal): > 100 µM | TGI (OVCAR-8 ovarian): > 100 µM | TGI (SK-MEL-2 melanoma): > 100 µM | TGI (TK-10 renal): > 100 µM | TGI (HT29 colon): > 100 µM | TGI (SF-268 CNS): > 100 µM | TGI (OVCAR-4 ovarian): > 100 µM | TGI (IGROV1 ovarian): > 100 µM | TGI (SF-539 CNS): > 100 µM | TGI (K-562 leukemia): > 100 µM | TGI (SN12C renal): > 100 µM

NC(Cc1cc(I)c(Oc2ccc(O)c(I)c2)c(I)c1)C(=O)O (stereo unspecified)
TGI (786-0 renal): > 100 µM | TGI (OVCAR-8 ovarian): > 100 µM | TGI (SK-MEL-2 melanoma): 41 µM | TGI (M14 melanoma): > 100 µM | TGI (TK-10 renal): > 100 µM | TGI (HT29 colon): > 100 µM | TGI (SF-268 CNS): > 100 µM | TGI (OVCAR-4 ovarian): > 100 µM | TGI (IGROV1 ovarian): > 100 µM | TGI (SN12C renal): > 100 µM

N#CCC(=O)N/N=C\C(O)C(O)C(O)C(O)CO (stereo unspecified)
TGI (786-0 renal): > 100 µM | TGI (OVCAR-8 ovarian): > 100 µM | TGI (SK-MEL-2 melanoma): > 100 µM | TGI (M14 melanoma): > 100 µM | TGI (TK-10 renal): > 100 µM | TGI (HT29 colon): > 100 µM | TGI (SF-268 CNS): > 100 µM | TGI (IGROV1 ovarian): > 100 µM | TGI (SF-539 CNS): > 100 µM | TGI (K-562 leukemia): > 100 µM | TGI (SN12C renal): > 100 µM

COC(=O)C1(CCCCl)CCCN1C(=O)OC(C)(C)C (stereo unspecified)
TGI (786-0 renal): > 100 µM | TGI (SK-MEL-2 melanoma): > 100 µM | TGI (TK-10 renal): > 100 µM | TGI (HT29 colon): > 100 µM | TGI (SF-268 CNS): > 100 µM | TGI (OVCAR-4 ovarian): > 100 µM | TGI (IGROV1 ovarian): > 100 µM | TGI (K-562 leukemia): > 100 µM | TGI (SN12C renal): > 100 µM

Cc1cnc2[nH]c(-c3cccc4ccccc34)cc(=O)c2c1
TGI (786-0 renal): > 100 µM | TGI (OVCAR-8 ovarian): 0.108 µM | TGI (SK-MEL-2 melanoma): > 100 µM | TGI (M14 melanoma): > 100 µM | TGI (HT29 colon): 0.0121 µM and 0.0273 µM | GI50 (SF-268 CNS): 6.51 µM | TGI (SF-268 CNS): > 100 µM | TGI (OVCAR-4 ovarian): > 100 µM | TGI (IGROV1 ovarian): 43.5 µM | TGI (K-562 leukemia): > 100 µM | GI50 (SN12C renal): 0.042 µM | TGI (SN12C renal): > 100 µM

CN(/N=C/c1ccccn1)C1=NCCN1
TGI (786-0 renal): > 100 µM | TGI (OVCAR-8 ovarian): > 100 µM | TGI (SK-MEL-2 melanoma): > 100 µM | TGI (M14 melanoma): > 100 µM | TGI (HT29 colon): > 100 µM | TGI (SF-268 CNS): > 100 µM | TGI (OVCAR-4 ovarian): > 100 µM | TGI (IGROV1 ovarian): > 100 µM | TGI (SF-539 CNS): > 100 µM | TGI (K-562 leukemia): > 100 µM

CC(C)C(=O)Cc1ccc2ccccc2n1
TGI (786-0 renal): > 100 µM | TGI (OVCAR-8 ovarian): > 100 µM | TGI (SK-MEL-2 melanoma): > 100 µM | TGI (M14 melanoma): > 100 µM | TGI (TK-10 renal): > 100 µM | TGI (HT29 colon): > 100 µM | TGI (SF-268 CNS): > 100 µM | TGI (OVCAR-4 ovarian): > 100 µM | TGI (IGROV1 ovarian): > 100 µM | TGI (SN12C renal): > 100 µM

COc1ccc(OC)c(/C=C2/C(=O)N=C(NC(C)=O)N2C)c1
TGI (786-0 renal): > 100 µM | TGI (OVCAR-8 ovarian): > 100 µM | TGI (SK-MEL-2 melanoma): > 100 µM | TGI (M14 melanoma): > 100 µM | TGI (TK-10 renal): > 100 µM | TGI (HT29 colon): > 100 µM | TGI (SF-268 CNS): > 100 µM | TGI (OVCAR-4 ovarian): > 100 µM | TGI (IGROV1 ovarian): > 100 µM | TGI (SF-539 CNS): > 100 µM | TGI (SN12C renal): > 100 µM

O=C1/C(=C/c2ccc(Br)s2)NC(=S)N1CN1CCCCC1
TGI (786-0 renal): > 100 µM | TGI (OVCAR-8 ovarian): > 100 µM | TGI (SK-MEL-2 melanoma): 37.1 µM | TGI (TK-10 renal): > 100 µM | TGI (HT29 colon): > 100 µM | TGI (SF-268 CNS): > 100 µM | TGI (OVCAR-4 ovarian): > 100 µM | TGI (IGROV1 ovarian): > 100 µM | TGI (K-562 leukemia): 59.8 µM | TGI (SN12C renal): > 100 µM

COC(=O)C1CC2CC1C1C2SC(F)(F)C1(F)F (stereo unspecified)
TGI (786-0 renal): > 100 µM | TGI (OVCAR-8 ovarian): > 100 µM | TGI (SK-MEL-2 melanoma): > 100 µM | TGI (M14 melanoma): > 100 µM | TGI (TK-10 renal): > 100 µM | TGI (SF-268 CNS): > 100 µM | TGI (OVCAR-4 ovarian): > 100 µM | TGI (IGROV1 ovarian): > 100 µM | TGI (SF-539 CNS): > 100 µM | TGI (SN12C renal): > 100 µM
